Values after ≈ are worked out from the molar mass of the structure shown.

Assay [1] concerns Mycobacterium tuberculosis. Kind of assay: Antimycobacterial activity against rifampicin resistant Mycobacterium tuberculosis ATCC 35338 assessed as bacterial growth inhibition incubated for 7 days by resazurin dye based microtiter assay. It is filed as functional. The conditions noted are these: ATCC 35338, 168 h, time 7 day.
Assay [2] deals with Mycobacterium tuberculosis. Nature of the assay: Antimycobacterial activity against rifampicin resistant Mycobacterium tuberculosis ATCC 35822 assessed as bacterial growth inhibition incubated for 7 days by resazurin dye based microtiter assay. To be noted: ATCC 35822, 168 h, time 7 day. It is filed as functional.

With `COc1ccccc1-c1nc2c([nH]1)c1c(c3ccccc32)OC(C)(C)CC1`, the MIC in assay [1] is 1.56 µg/mL (≈ 4.35 µM).

As to `CC1(C)Oc2c(c3nc4ccccc4nc3c3ccccc23)C=C1Br`, in assay [1], the MIC was < 6.25 µg/mL.

Turning to `CC1(C)CCc2c(c3ccccc3c3nc(-c4cccc(Br)c4)[nH]c23)O1`, the MIC in assay [1] worked out at 1.56 µg/mL (≈ 3.83 µM).

Regarding `CC1CCC2C(C1)c1c(c3ccccc3c3nc4ccccc4nc13)OC2(C)C` (stereo unspecified), the MIC in assay [1] is < 6.25 µg/mL.

Regarding `Cc1ccccc1-c1nc2c([nH]1)c1c(c3ccccc32)OC(C)(C)CC1`, the minimum inhibitory concentration (MIC) in assay [1] was found to be 1.56 µg/mL (≈ 4.56 µM).

As for `Cc1ccc(-c2nc3c([nH]2)c2c(c4ccccc43)OC(C)(C)CC2)cc1`, in assay [1], the MIC is 6.25 µg/mL (≈ 18.3 µM).

As for `CC1(C)CCc2c(c3ccccc3c3nc(-c4ccc([N+](=O)[O-])cc4)[nH]c23)O1`, the MIC in assay [1] was > 100 µg/mL; in assay [2] it was 1.56 µg/mL (≈ 4.18 µM).

Turning to `C=CCC1Cc2c(c3ccccc3c3nc4ccccc4nc23)OC1(C)C` (stereo unspecified), the MIC in assay [1] worked out at 0.78 µg/mL (≈ 2.2 µM).

On to `CC1(C)CCc2c(c3ccccc3c3nc(-c4cccc(F)c4)[nH]c23)O1`, for which the MIC in assay [1] is 1.56 µg/mL (≈ 4.5 µM).

Turning to `CC1(C)CCc2c(c3ccccc3c3nc(-c4cccc(C(F)(F)F)c4)[nH]c23)O1`, the MIC in assay [1] turned out to be 1.56 µg/mL (≈ 3.94 µM).
